Structures are written as SMILES.

What is called EC50 is the concentration at which the effect is half-maximal. For orientation: Ki means the equilibrium dissociation constant of an inhibitor or competing ligand from its target. A high value points to weaker binding.

One test has as its target T1, Adenosine receptor A2b (Homo sapiens, UniProt P29275).
T1 sequence (P29275 whole entry): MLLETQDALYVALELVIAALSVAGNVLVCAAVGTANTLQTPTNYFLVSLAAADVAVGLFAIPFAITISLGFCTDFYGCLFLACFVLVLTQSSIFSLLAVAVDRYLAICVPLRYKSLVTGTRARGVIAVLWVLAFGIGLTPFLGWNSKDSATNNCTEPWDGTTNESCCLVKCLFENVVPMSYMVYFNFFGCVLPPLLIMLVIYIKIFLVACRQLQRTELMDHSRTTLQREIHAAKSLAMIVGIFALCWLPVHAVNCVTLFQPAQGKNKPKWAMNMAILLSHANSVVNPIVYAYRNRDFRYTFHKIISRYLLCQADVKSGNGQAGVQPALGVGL
Put plainly: Agonist activity at human adenosine A2B receptor expressed in CHO cells assessed as stimulation of cAMP production. On the technique in general: Changes in cAMP serve as a functional read-out for many G protein-coupled receptors.

For the next test, the target named is Adenosine receptor A2a (Homo sapiens, UniProt P29274). Briefly: biochemical.
Chain of Adenosine receptor A2a (P29274 whole entry): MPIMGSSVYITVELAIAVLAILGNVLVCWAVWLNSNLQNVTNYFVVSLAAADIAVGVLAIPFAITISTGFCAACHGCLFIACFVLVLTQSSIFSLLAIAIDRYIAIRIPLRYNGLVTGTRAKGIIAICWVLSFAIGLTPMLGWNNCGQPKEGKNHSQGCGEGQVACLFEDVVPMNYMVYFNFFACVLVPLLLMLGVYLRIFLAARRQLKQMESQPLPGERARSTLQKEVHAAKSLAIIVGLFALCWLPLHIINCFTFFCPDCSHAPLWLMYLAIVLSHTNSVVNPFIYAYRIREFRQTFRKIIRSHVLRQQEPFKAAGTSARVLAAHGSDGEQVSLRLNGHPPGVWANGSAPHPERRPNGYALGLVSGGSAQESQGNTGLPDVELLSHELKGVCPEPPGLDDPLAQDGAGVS
In test [1] the target is T2, Adenosine receptor A3 (Homo sapiens) (UniProt P0DMS8).
T2 sequence (whole entry): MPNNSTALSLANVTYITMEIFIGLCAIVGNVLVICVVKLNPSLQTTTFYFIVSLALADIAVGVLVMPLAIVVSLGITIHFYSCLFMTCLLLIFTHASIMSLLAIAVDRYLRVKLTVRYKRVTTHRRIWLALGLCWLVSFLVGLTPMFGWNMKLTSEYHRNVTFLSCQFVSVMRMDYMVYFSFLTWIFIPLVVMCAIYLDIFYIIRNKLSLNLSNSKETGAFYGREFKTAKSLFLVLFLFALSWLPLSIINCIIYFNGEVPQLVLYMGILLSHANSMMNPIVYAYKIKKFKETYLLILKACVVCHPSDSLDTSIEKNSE
Briefly: Maximum efficacy at human recombinant adenosine A3 receptor expressed in CHO cells assessed as inhibition of cAMP production at 10 uM relative to NECA. In kind it is functional, cell-based.

The next test addresses T3, Adenosine receptor A1 (Homo sapiens, UniProt P30542).
T3 sequence (P30542 whole entry): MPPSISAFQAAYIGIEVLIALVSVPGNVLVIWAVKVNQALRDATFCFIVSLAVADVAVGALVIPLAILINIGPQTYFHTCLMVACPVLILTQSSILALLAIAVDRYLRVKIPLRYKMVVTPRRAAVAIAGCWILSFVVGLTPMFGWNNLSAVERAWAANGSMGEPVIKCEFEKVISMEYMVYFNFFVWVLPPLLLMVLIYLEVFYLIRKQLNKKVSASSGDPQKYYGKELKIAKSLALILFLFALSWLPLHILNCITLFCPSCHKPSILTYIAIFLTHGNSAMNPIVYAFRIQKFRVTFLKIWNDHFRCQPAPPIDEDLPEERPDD
Put plainly: Displacement of […] from human adenosine A1 receptor expressed in CHO cells. Type of test: cell-based. For orientation: In a radioligand displacement assay an active substance lowers the binding of a labelled ligand.

In another test the target is T4, Adenosine receptor A3 (Homo sapiens, UniProt P0DMS8).
T4 sequence (P0DMS8 whole entry): T2 sequence (whole entry)
Briefly: Displacement of [125I]I-AB-MECA from human adenosine A3 receptor expressed in CHO cells. In kind it is cell-based.

Test [2] has as its target T5, Adenosine receptor A2b (Homo sapiens) (UniProt P29275).
T5 sequence (whole entry): T1 sequence (P29275 whole entry)
Put plainly: Agonist activity at human adenosine A2B receptor expressed in CHO cells assessed as stimulation of cAMP production at 10 uM. Type of test: functional, cell-based.

Description for Adenosine receptor A2a: Displacement of [3H]CGS-21680 from human adenosine A2A receptor expressed in CHO cells

On to `Nc1nc(OCCc2ccc3ccccc3c2)nc2c1ncn2[C@@H]1O[C@H](CO)[C@@H](O)[C@H]1O`, for which the EC50 on Adenosine receptor A2b stood at 1440 nM. The Ki was 16.1 nM on Adenosine receptor A2a, 141 nM at Adenosine receptor A1 and 130 nM at Adenosine receptor A3. Further, in test [1], the Efficacy was determined as 45%.
Turning to `Nc1nc(OCCCCc2ccccc2)nc2c1ncn2[C@@H]1O[C@H](CO)[C@@H](O)[C@H]1O`, the Ki at Adenosine receptor A2a stood at 519 nM; at Adenosine receptor A1, 2060 nM; at Adenosine receptor A3 it was 352 nM. Further, the Activity in test [2] came out at 3%. The Efficacy in test [1] was 37%.
`Nc1nc(OCCc2cc3ccccc3[nH]2)nc2c1ncn2[C@@H]1O[C@H](CO)[C@@H](O)[C@H]1O`: the Ki at Adenosine receptor A2a amounted to 373 nM; on Adenosine receptor A1 it was 197 nM; on Adenosine receptor A3 it was 513 nM. Further, the Activity in test [2] turned out to be 49%. Moreover, in test [1], the Efficacy was found to be 37%.
For `Nc1nc(OCCc2c[nH]c3c(Br)cccc23)nc2c1ncn2[C@@H]1O[C@H](CO)[C@@H](O)[C@H]1O`, the Ki on Adenosine receptor A2a was determined as 252 nM; at Adenosine receptor A1, 210 nM; on Adenosine receptor A3 it was 142 nM. Besides, the Activity in test [2] is 43%. For the same molecule, the Efficacy in test [1] is -8%.
As to `Nc1nc(OCCc2c[nH]c3cccc(Br)c23)nc2c1ncn2[C@@H]1O[C@H](CO)[C@@H](O)[C@H]1O`, the inhibition constant (Ki) came to 39.7 nM on Adenosine receptor A2a, 443 nM on Adenosine receptor A1 and 260 nM on Adenosine receptor A3. In addition, in test [2], the Activity worked out at 16%. For the same molecule, the Efficacy in test [1] is -5%.
As for `Nc1nc(OCCc2ccsc2)nc2c1ncn2[C@@H]1O[C@H](CO)[C@@H](O)[C@H]1O`, the inhibitory constant (Ki) at Adenosine receptor A2a is 13.3 nM; at Adenosine receptor A1 it was 280 nM; at Adenosine receptor A3, 101 nM. Besides, the Activity in test [2] turned out to be 9%. The Efficacy in test [1] came to 62%.
Regarding `N=C(N)Nc1nc(OCCc2c[nH]c3ccccc23)nc2c1ncn2[C@@H]1O[C@H](CO)[C@@H](O)[C@H]1O`, the Ki was determined as 277 nM at Adenosine receptor A2a, 73.6 nM at Adenosine receptor A1 and 90 nM at Adenosine receptor A3. The Activity in test [2] came out at 40%. Besides, the Efficacy in test [1] amounted to 58%.
Regarding `CCOc1nc(N)c2ncn([C@@H]3O[C@H](CO)[C@@H](O)[C@H]3O)c2n1`, the inhibition constant (Ki) at Adenosine receptor A2a was 360 nM; on Adenosine receptor A1, 2640 nM; on Adenosine receptor A3, 568 nM. Further, in test [2], the Activity was -1%. Further, the Efficacy in test [1] was 99%.
For the molecule `Nc1nc(OCCc2c[nH]c3cc(Cl)ccc23)nc2c1ncn2[C@@H]1O[C@H](CO)[C@@H](O)[C@H]1O`, the EC50 on Adenosine receptor A2b amounted to 216 nM. Further, the Ki at Adenosine receptor A2a amounted to 29.3 nM. In test [1], the Efficacy was determined as 2%.
For `Nc1nc(OCCCc2ccccc2)nc2c1ncn2[C@@H]1O[C@H](CO)[C@@H](O)[C@H]1O`, the inhibitory constant (Ki) stood at 500 nM on Adenosine receptor A2a, 960 nM at Adenosine receptor A1 and 66 nM on Adenosine receptor A3. Further, the Activity in test [2] was 29%. For the same molecule, in test [1], the Efficacy amounted to 42%.
For `Nc1nc(OCCc2cccc(F)c2)nc2c1ncn2[C@@H]1O[C@H](CO)[C@@H](O)[C@H]1O` the same measures were 69.3 nM, 312 nM, 119 nM, 64% and 50%.
Regarding `CCNC(=O)[C@H]1O[C@@H](n2cnc3c(NC(=N)N)ncnc32)[C@H](O)[C@@H]1O`, the Efficacy in test [1] is 100%.
On to `Nc1nc(OCCc2ccc(F)cc2)nc2c1ncn2[C@@H]1O[C@H](CO)[C@@H](O)[C@H]1O`, for which the Ki at Adenosine receptor A2a is 56.8 nM; on Adenosine receptor A1 it was 467 nM; on Adenosine receptor A3, 112 nM. Further, in test [2], the Activity is 11%. In addition, the Efficacy in test [1] worked out at 74%.
In the case of `C[C@@H](CCOc1nc(N)c2ncn([C@@H]3O[C@H](CO)[C@@H](O)[C@H]3O)c2n1)c1ccccc1`, the results for the Ki on Adenosine receptor A2a, on Adenosine receptor A1 and at Adenosine receptor A3 were 413 nM, 1560 nM and 312 nM, respectively. The Activity in test [2] came to 13%. Further, the Efficacy in test [1] worked out at 18%.
For the molecule `Nc1nc(OCCc2ccccc2F)nc2c1ncn2[C@@H]1O[C@H](CO)[C@@H](O)[C@H]1O`, the Ki amounted to 58.1 nM at Adenosine receptor A2a, 331 nM on Adenosine receptor A1 and 77.8 nM at Adenosine receptor A3. Also, in test [2], the Activity came out at 12%. In addition, the Efficacy in test [1] was 45%.

(Values after ChEMBL document CHEMBL1144471, “Structure-activity relationships of 2,N(6),5'-substituted adenosine derivatives with potent activity at the A2B adenosine receptor” (J Med Chem, 2007).)
